Results taken from patent publication US10479793B2, “Imidazopyridazine compounds useful as modulators of IL-12, IL-23 and/or IFN alpha responses” (BRISTOL-MYERS SQUIBB COMPANY, priority 2015, dated 2019).
Like-named read-outs stand apart in the source and are kept apart here.

Key:
[1] = test system: IFNα stimulated Kit225 T cells with a stably-integrated STAT-dependent luciferase reporter; assay: Kit225 T cell assay, IFNα stimulated STAT-dependent luciferase reporter; assay type: cell-based, human
Procedure: (§1) Kit225 T cells with a stably-integrated STAT-dependent luciferase reporter were plated in RPMI (GIBCO) containing 10% heat-inactivated FBS (GIBCO) and 100 U/mL PenStrep (GIBCO). The cells were then stimulated with either 20 ng/mL human recombinant IL-23 or 200 U/mL human recombinant IFNα (PBL InterferonSource) for 5-6 hours. Luciferase expression was measured using the STEADY-GLO Luciferase Assay System (PROMEGA) according to the manufacturer's instructions.

[2] = biological target: T1, recombinantly expressed His-tagged protein corresponding to amino acids 575-869 of human Tyk2 (Homo sapiens, UniProt P29597); assay: Probe displacement assay (scintillation proximity, tritiated probe); assay type: binding; conditions: His-tagged Tyk2 (575-869) 2.5 nM, 40 nM radiolabeled probe, 30 minutes at room temperature
T1 construct: made in house
Procedure: The preparation of radiolabeled probe, (R)—N-(1-(3-(8-methyl-5-(methylamino)-8H-imidazo[4,5-d]thiazolo[5,4-b]pyridin-2-yl)phenyl)ethyl)-2-([^3H]methylsulfonyl)benzamide, was performed as described below: […]

[3] = test system: IL-23 stimulated Kit225 T cells with a stably-integrated STAT-dependent luciferase reporter; assay: Kit225 T cell assay, IL-23 stimulated STAT-dependent luciferase reporter; assay type: cell-based, human
Procedure: as §1

[4] = Homo sapiens, KIT225, 200 U/mL human recombinant IFNα, 5-6 hours, luciferase, read-out: IFNa Kit225 Reporter, (IC50)
[5] = Homo sapiens, KIT225, 20 ng/mL human recombinant IL-23, 5-6 hours, luciferase, read-out: IL-23 Kit225 Reporter, (IC50)
[6] = Homo sapiens, KIT225, read-out: IFNa Kit225 Reporter, (IC50, uM)
[7] = KIT225, 200 U/mL human recombinant IFNα, 5-6 hours, luciferase, read-out: IFNa Kit225 Reporter, (IC50)
[8] = KIT225, 20 ng/mL human recombinant IL-23, 5-6 hours, luciferase, read-out: IL-23 Kit225 Reporter, (IC50)

T1 sequence (P29597 with tags, fused parts or gaps): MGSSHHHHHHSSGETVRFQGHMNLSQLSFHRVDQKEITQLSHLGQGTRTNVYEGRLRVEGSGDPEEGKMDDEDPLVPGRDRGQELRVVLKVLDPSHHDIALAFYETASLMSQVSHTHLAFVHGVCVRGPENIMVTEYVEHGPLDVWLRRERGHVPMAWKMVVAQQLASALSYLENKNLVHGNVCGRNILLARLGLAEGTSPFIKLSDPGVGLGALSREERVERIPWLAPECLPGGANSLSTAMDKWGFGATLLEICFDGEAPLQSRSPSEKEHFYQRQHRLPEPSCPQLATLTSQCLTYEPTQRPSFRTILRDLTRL

Row | SMILES | IC50 [1, 4] [µM] | EC50 [2] [nM] | IC50 [3, 5] [µM] | IC50 [1, 7] [µM] | IC50 [3, 8] [µM] | IC50 [1, 6] [µM] | IC50 ([3]; Homo sapiens, KIT225, read-out: IL-23 Kit225 Reporter, (IC50, uM)) [µM]
1 | CNc1cc(Nc2cc(C)cc(F)c2)nn2c(C(=O)N3CCC3)cnc12 [Example 3] |  | 60 |  |  |  | 1.92 | 2.82
2 | CNc1cc(Nc2cc(C)cc(C)c2)nn2c(C(=O)N3CC(O)C3)cnc12 [Example 7] | 3.3 | 250 |  |  |  |  | 
3 | CNc1cc(N2CCc3ccccc32)nn2c(C(=O)NCC(C)(C)O)cnc12 [Example 11] |  | 90 |  | 2.27 | 2.9 |  | 
4 | CNc1cc(Nc2cccnc2-n2cccn2)nn2c(C(=O)NC3CCCC3O)cnc12 (stereo not shown) [Example 28] |  | 60 |  | 0.45 | 0.33 |  | 
5 | CNc1cc(Nc2cccnc2-n2cccn2)nn2c(C(=O)NC(C)CO)cnc12 (stereo not shown) [Example 29] |  | 40 |  | 0.41 | 0.27 |  | 
6 | CNc1cc(Nc2cccnc2-n2cccn2)nn2c(C(=O)NCC(C)(C)O)cnc12 [Example 31] |  | 130 |  | 2.58 | 0.58 |  | 
7 | CNc1cc(Nc2cccnc2-n2cccn2)nn2c(C(=O)N[C@@H](C)CO)cnc12 [Example 32] |  | 50 |  | 0.31 | 0.54 |  | 
8 | N#Cc1cc(Nc2cc(NC3CC3)c3ncc(C(=O)NC4CC4)n3n2)cc(C(F)(F)F)c1 [Example 33] |  | 190 |  | 12.5 | 12.5 |  | 
9 | N#Cc1cc(Nc2cc(NC3CC3)c3ncc(C(=O)NCCO)n3n2)cc(C(F)(F)F)c1 [Example 35] |  | 160 |  | 8.48 | 8.07 |  | 
10 | CCNC(=O)c1cnc2c(NC3CC3)cc(Nc3cc(C#N)cc(C(F)(F)F)c3)nn12 [Example 36] |  | 350 |  | 12.5 | 3.33 |  | 
11 | O=C(NC1CCC1)c1cnc2c(NC3CC3)cc(Nc3cc(F)cc(F)c3F)nn12 [Example 44] |  | 60 |  | 1.39 | 1.46 |  | 
12 | NC(=O)c1cnc2c(NC3CC3)cc(Nc3cccc(F)c3)nn12 [Example 47] |  | 40 |  | 1.13 | 1.12 |  | 
13 | Cc1cc(C)cc(Nc2cc(NCCCN(C)C)c3ncc(C(N)=O)n3n2)c1 [Example 50] |  | 70 |  | 1.28 | 2.32 |  | 
14 | Cc1cc(C)cc(Nc2cc(NCC3CC3)c3ncc(C(N)=O)n3n2)c1 [Example 51] |  | 70 |  | 2.9 | 3.74 |  | 
15 | Cc1cc(C)cc(Nc2cc(NCCO)c3ncc(C(N)=O)n3n2)c1 [Example 52] |  | 70 |  | 12.8 | 7.04 |  | 
16 | Cc1cc(C)cc(Nc2cc(NCC(C)C)c3ncc(C(N)=O)n3n2)c1 [Example 53] |  | 200 |  | 12.4 | 9.72 |  | 
17 | CCCCCNc1cc(Nc2cc(C)cc(C)c2)nn2c(C(N)=O)cnc12 [Example 55] |  | 80 |  | 3.62 | 2.38 |  | 
18 | CNc1cc(Nc2cccnc2-n2ccc(C(F)(F)F)n2)nn2c(C(=O)NC3CC3)cnc12 [Example 99] |  | 570 |  |  |  |  | 
19 | CNc1cc(Nc2cc(C)cc(C)c2)nn2c(C(=O)NC3CC3)cnc12 [Example 114] |  |  |  |  |  | 0.1 | 

The next lines start with results.

Row | IC50 [1, 4] [µM] | EC50 [2] [nM] | IC50 [3, 5] [µM] | IC50 [1, 7] [µM] | IC50 [3, 8] [µM] | SMILES | IC50 [1, 6] [µM] | IC50 ([3]; Homo sapiens, KIT225, read-out: IL-23 Kit225 Reporter, (IC50, uM)) [µM]
20 | 0.03 | 3.24 | 0.03 |  |  | CNc1cc(Nc2cc(C)cc(F)c2)nn2c(C(=O)NC3CC3)cnc12 [Example 2] |  | 
21 | 0.32 | 6.85 | 0.81 |  |  | CNc1cc(Nc2cc(F)cc(C(F)(F)F)c2)nn2c(C(=O)NC3CCC3)cnc12 [Example 4] |  | 
22 | 0.5 | 7.29 | 0.5 |  |  | CNc1cc(Nc2cccc(OC(F)(F)F)c2)nn2c(C(=O)NC3CCC3)cnc12 [Example 5] |  | 
23 |  | 4.21 |  | 0.09 | 0.12 | CNc1cc(Nc2cc(F)ccc2F)nn2c(C(N)=O)cnc12 [Example 6] |  | 
24 | 0.03 | 3.61 | 0.03 |  |  | CNc1cc(Nc2cc(F)ccc2F)nn2c(C(=O)NC3CC3)cnc12 [Example 8] |  | 
25 | 0.17 | 5.91 | 0.25 |  |  | CNc1cc(Nc2cc(C)cc(F)c2)nn2c(C(=O)NCC(C)(C)O)cnc12 [Example 9] |  | 
26 |  | 7.57 |  | 0.08 | 0.16 | CNc1cc(N2CCc3ccccc32)nn2c(C(=O)NC3CCC3)cnc12 [Example 10] |  | 
27 | 0.03 | 2.97 | 0.05 |  |  | CNc1cc(Nc2cc(F)cc(F)c2F)nn2c(C(=O)NC3CC3)cnc12 [Example 13] |  | 
28 |  | 7.03 |  | 0.26 | 0.37 | CNc1cc(Nc2cc(F)cc(F)c2F)nn2c(C(=O)NCC(C)(C)O)cnc12 [Example 14] |  | 
29 |  | 20 |  | 0.4 | 0.56 | CNc1cc(Nc2cc(F)cc(F)c2)nn2c(C(=O)NCC(C)(C)CO)cnc12 [Example 15] |  | 
30 |  | 7.04 |  | 0.09 | 0.24 | CNc1cc(Nc2cc(F)cc(F)c2OC)nn2c(C(=O)NCC(C)(C)C)cnc12 [Example 16] |  | 
31 |  | 3.72 |  | 0.01 | 0.04 | CNc1cc(Nc2cc(F)cc(F)c2F)nn2c(C(=O)NCC(C)(C)CO)cnc12 [Example 18] |  | 
32 |  | 5.86 |  | 0.17 | 0.27 | CNc1cc(Nc2c(F)c(F)cc(F)c2F)nn2c(C(N)=O)cnc12 [Example 19] |  | 
33 | 0.05 | 3.97 | 0.06 |  |  | CNc1cc(Nc2c(F)c(F)cc(F)c2F)nn2c(C(=O)NC3CC3)cnc12 [Example 20] |  | 
34 |  | 30 |  | 0.21 | 0.39 | CNc1cc(Nc2c(F)c(F)cc(F)c2F)nn2c(C(=O)NCC(C)(C)O)cnc12 [Example 21] |  | 
35 | 0.18 | 5.46 | 0.25 |  |  | CNc1cc(Nc2ccccn2)nn2c(C(=O)N[C@@H]3C[C@@H]3F)cnc12 [Example 22] |  | 
36 |  | 40 |  | 0.66 | 0.42 | CNc1cc(Nc2cccc(-c3ccc(OC(F)(F)F)cc3)n2)nn2c(C(=O)NC3(C#N)CC3)cnc12 [Example 23] |  | 
37 |  | 7.25 |  | 0.05 | 0.04 | CNc1cc(Nc2cccnc2OC)nn2c(C(=O)NC3(C#N)CC3)cnc12 [Example 24] |  | 
38 |  | 6.05 |  | 0.09 | 0.05 | CNc1cc(Nc2cccnc2OC)nn2c(C(=O)NCCO)cnc12 [Example 25] |  | 
39 |  | 2.93 |  | 0.06 | 0.09 | CNc1cc(Nc2cccnc2OC)nn2c(C(=O)NCCF)cnc12 [Example 26] |  | 
40 | 0.01 | 2.7 | 0.04 |  |  | CNc1cc(Nc2cccnc2OC)nn2c(C(=O)NC3CCC3)cnc12 [Example 27] |  | 
41 |  | 20 |  | 0.21 | 0.35 | CNc1cc(Nc2cccnc2-n2cccn2)nn2c(C(=O)NCCO)cnc12 [Example 30] |  | 
42 | 0.58 | 20 | 0.79 |  |  | Cc1cc(F)cc(Nc2cc(NC3CC3)c3ncc(C(=O)NC4CC4)n3n2)c1 [Example 38] |  | 
43 |  | 30 |  | 1.17 | 1.25 | CCCNc1cc(Nc2cc(C)cc(C)c2)nn2c(C(N)=O)cnc12 [Example 54] |  | 
44 |  | 7.59 |  |  |  | CNc1cc(Nc2cccnc2C(=O)NCCOC)nn2c(C(=O)NC3CC3)cnc12 [Example 108] |  | 
45 |  | 7.62 |  |  | 0.75 | CNc1cc(Nc2cccc(-c3ccc(C(F)(F)F)cc3F)c2)nn2c(C(=O)NC[C@@](C)(O)CO)cnc12 [Example 113] |  | 
